Measurements from patent US4551445A, “Derivatives of arginine vasopressin antagonists” (The Medical College of Ohio, priority 1983, dated 1985).
Starred links: 1 amine or outer side, 2 acyl side, 3 side chain; linkers in the order of their positions; H or OH if unused. Positions of bridges follow the written chain, without caps; N, C: chain ends. Non-standard residues stand in square brackets, D forms with d. Residues, ends and D or L forms follow the SMILES beside them. X1 = O=C(CC1(S[*:2])CCCCC1)[*:1]

Key:
[1] = test system: antidiuretic response to arginine vasopressin (ADH); assay: Anti-antidiuretic: antagonism of the antidiuretic response to subsequent injections of vasopressin; format: in vivo, rats; conditions: for Anti-Antidiuretic ED: effective dose
Experimental: Activity as antidiuretic agonists was determined by intravenous injection of the compounds being evaluated in ethanol-anesthesized water-loaded rats in accordance with Sawyer, Endocrinology, vol. 63 (1958) at 694. Antagonism of the response to subsequent injections of vasopressin was tested as described by Sawyer et al., Science, vol. 212 (1981) at 49.
(§1) Antagonistic potencies were determined and expressed as "effective doses" and pA2 values. The "effective dose" is defined as the dose (in nanomoles per kilogram) that reduces the response seen from 2x units of agonist injected 20 min after the dose of antagonist to the response with 1x units of agonist. Estimated in vivo "pA2 " values represent the negative logarithms of the effective doses, divided by the estimated volume of distribution (67 ml/kg).

[2] = test system: vasopressor response to arginine vasopressin; assay: Antivasopressor: antagonism to the vasopressor response (Dyckes et al.); format: in vivo; conditions: for Antivasopressor pA2: Table 1, estimated in vivo pA2; for Antagonistic Activities Antivasopressor pA2: table; for Antivasopressor Potency ED / AD/VP: Table 2; for Antivasopressor Potency ED: effective dose; for AD/VP: ratio, values fit antivasopressor ED / anti-antidiuretic ED
Experimental: Antagonism to the vasopressor response was estimated in accordance with Dyckes et al., J. Med. Chem., vol. 17 (1974) at 969. The values are expressed as pA2 values, defined as in Schild et al., Br. J. Pharmacol., vol. 2 (1947) at 189.
as §1

[3] = Table 1, estimated in vivo pA2, volume of distribution 67 ml/kg
[4] = Table 2, estimated in vivo pA2, volume of distribution 67 ml/kg

CCOc1ccc(C[C@H]2NC(=O)CC3(CCCCC3)SSC[C@@H](C(=O)N3CCC[C@H]3C(=O)N[C@@H](CCCNC(=N)N)C(=O)NCC(N)=O)NC(=O)[C@H](CC(N)=O)NC(=O)[C@H](C(C)C)NC(=O)[C@H](Cc3ccccc3)NC2=O)cc1 [d(CH2)5 --D-Tyr(Et)VAVP] ([dY](Et)FVNCPRG-NH2; linker N-5 via X1)
Anti-Antidiuretic pA2 [1, 3]: 7.81 ± 0.07 | Antivasopressor pA2 [2]: 8.22 ± 0.12

COc1ccc(C[C@H]2NC(=O)CC3(CCCCC3)SSC[C@@H](C(=O)N3CCC[C@H]3C(=O)N[C@@H](CCCNC(=N)N)C(=O)NCC(N)=O)NC(=O)[C@H](CC(N)=O)NC(=O)[C@H](C(C)C)NC(=O)[C@H](Cc3ccccc3)NC2=O)cc1 [d(CH2)5 --D-Tyr(Me)VAVP] ([dY](Me)FVNCPRG-NH2; linker N-5 via X1)
Anti-Antidiuretic pA2 [1, 3]: 7.77 ± 0.07 | Antivasopressor pA2 [2]: 8.48 ± 0.08

N=C(N)NCCC[C@H](NC(=O)[C@@H]1CCCN1C(=O)[C@@H]1CSSC2(CCCCC2)CC(=O)N[C@H](Cc2ccccc2)C(=O)N[C@@H](Cc2ccccc2)C(=O)N[C@@H](Cc2ccccc2)C(=O)N[C@@H](CC(N)=O)C(=O)N1)C(=O)NCC(N)=O [d(CH2)5 D-Phe^2 Phe^4 AVP, [1-(β-mercapto-β,β-cyclopentamethylenepropionic acid), 2-D-phenylalanine, 4-phenylalanine]-arginine vasopressin] ([dF]FFNCPRG-NH2; linker N-5 via X1)
Anti-Antidiuretic pA2 [1, 4]: 6.07

C[C@@H](O)[C@@H]1NC(=O)[C@H](Cc2ccccc2)NC(=O)[C@@H](Cc2ccccc2)NC(=O)CC2(CCCCC2)SSC[C@@H](C(=O)N2CCC[C@H]2C(=O)N[C@@H](CCCNC(=N)N)C(=O)NCC(N)=O)NC(=O)[C@H](CC(N)=O)NC1=O [d(CH2)5 D-Phe^2 Thr^4 AVP, [1-(β-mercapto-β,β-cyclopentamethylenepropionic acid), 2-D-phenylalanine, 4-threonine]-arginine vasopressin] ([dF]FTNCPRG-NH2; linker N-5 via X1)
Anti-Antidiuretic pA2 [1, 4]: 7.62

N=C(N)NCCC[C@H](NC(=O)[C@@H]1CCCN1C(=O)[C@@H]1CSSC2(CCCCC2)CC(=O)N[C@H](Cc2ccccc2)C(=O)N[C@@H](Cc2ccccc2)C(=O)N[C@@H](Cc2ccc(O)cc2)C(=O)N[C@@H](CC(N)=O)C(=O)N1)C(=O)NCC(N)=O [d(CH2)5 D-Phe^2 Tyr^4 AVP, [1-(β-mercapto-β,β-cyclopentamethylenepropionic acid), 2-D-phenylalanine, 4-tyrosine]-arginine vasopressin] ([dF]FYNCPRG-NH2; linker N-5 via X1)
Anti-Antidiuretic pA2 [1, 4]: ~ 5.57

CC(C)[C@@H]1NC(=O)[C@H](Cc2ccccc2)NC(=O)[C@@H](Cc2ccccc2)NC(=O)CC2(CCCCC2)SSC[C@@H](C(=O)N2CCC[C@H]2C(=O)N[C@@H](CCCNC(=N)N)C(=O)NCC(N)=O)NC(=O)[C@H](CC(N)=O)NC1=O [d(CH2)5 D-Phe^2 VAVP] ([dF]FVNCPRG-NH2; linker N-5 via X1)
Anti-Antidiuretic pA2 [1, 4]: 8.06

CCOc1ccc(C[C@H]2NC(=O)CC3(CCCCC3)SSC[C@@H](C(=O)N3CCC[C@@H]3C(=O)N[C@@H](CCCNC(=N)N)C(=O)NCC(N)=O)NC(=O)[C@H](CC(N)=O)NC(=O)[C@H](C(C)C)NC(=O)[C@H](Cc3ccccc3)NC2=O)cc1 [d(CH2)5 D-Tyr(Et)^2 D-Pro^7 VAVP] ([dY](Et)FVNC[dP]RG-NH2; linker N-5 via X1)
Anti-Antidiuretic pA2 [1, 3]: 7.64 ± 0.08 | Antivasopressor pA2 [2]: 8.10 ± 0.06

CCOc1ccc(C[C@H]2NC(=O)CC3(CCCCC3)SSC[C@@H](C(=O)N3CCC[C@H]3C(=O)N[C@@H](CCCCN)C(=O)NCC(N)=O)NC(=O)[C@H](CC(N)=O)NC(=O)[C@H](C(C)C)NC(=O)[C@H](Cc3ccccc3)NC2=O)cc1 [d(CH2)5 D-Tyr(Et)^2 Val^4 Lys^8 VP] ([dY](Et)FVNCPKG-NH2; linker N-5 via X1)
Anti-Antidiuretic pA2 ([1]; rat, in vivo): 7.72

CCOc1ccc(C[C@@H]2NC(=O)CC3(CCCCC3)SSC[C@@H](C(=O)N3CCC[C@H]3C(=O)N[C@@H](CCCNC(=N)N)C(=O)NCC(N)=O)NC(=O)[C@H](CC(N)=O)NC(=O)[C@H](CCC(N)=O)NC(=O)[C@H](Cc3ccccc3)NC2=O)cc1 [d(CH2)5 Tyr(Et)AVP, reference compound] (Y(Et)FQNCPRG-NH2; linker N-5 via X1)
Antagonistic Activities Antivasopressor pA2 [2]: 8.47 ± 0.04

CCOc1ccc(C[C@@H]2NC(=O)CC3(CCCCC3)SSC[C@@H](C(=O)N3CCC[C@H]3C(=O)N[C@H](CCCNC(=N)N)C(=O)NCC(N)=O)NC(=O)[C@H](CC(N)=O)NC(=O)[C@H](C(C)C)NC(=O)[C@H](Cc3ccccc3)NC2=O)cc1 [d(CH2)5 Tyr(Et)VDAVP] (Y(Et)FVNCP[dR]G-NH2; linker N-5 via X1)
Anti-Antidiuretic pA2 [1, 3]: 7.10 ± 0.08 | Antivasopressor pA2 [2]: 8.31 ± 0.05

CCOc1ccc(C[C@@H]2NC(=O)CC3(CCCCC3)SSC[C@@H](C(=O)N3CCC[C@@H]3C(=O)N[C@@H](CCCNC(=N)N)C(=O)NCC(N)=O)NC(=O)[C@H](CC(N)=O)NC(=O)[C@H](C(C)C)NC(=O)[C@H](Cc3ccccc3)NC2=O)cc1 [d(CH2)5 Tyr(Et)^2 D-Pro^7 VAVP] (Y(Et)FVNC[dP]RG-NH2; linker N-5 via X1)
Anti-Antidiuretic pA2 [1, 3]: 6.32 ± 0.11 | Antivasopressor pA2 [2]: 8.23 ± 0.13

CCOc1ccc(C[C@@H]2NC(=O)CC3(CCCCC3)SSC[C@@H](C(=O)N3CCC[C@H]3C(=O)N[C@@H](CCCCN)C(=O)NCC(N)=O)NC(=O)[C@H](CC(N)=O)NC(=O)[C@H](C(C)C)NC(=O)[C@H](Cc3ccccc3)NC2=O)cc1 [d(CH2)5 Tyr(Et)^2 Val^4 Lys^8 VP] (Y(Et)FVNCPKG-NH2; linker N-5 via X1)
Anti-Antidiuretic pA2 ([1]; rat, in vivo): 7.29

COc1ccc(C[C@@H]2NC(=O)CC3(CCCCC3)SSC[C@@H](C(=O)N3CCC[C@H]3C(=O)N[C@@H](CCCNC(=N)N)C(=O)NCC(N)=O)NC(=O)[C@H](CC(N)=O)NC(=O)[C@H](CCC(N)=O)NC(=O)[C@H](Cc3ccccc3)NC2=O)cc1 [d(CH2)5 Tyr(Me)AVP, [1-(β-mercapto-β,β-cyclopentamethylenepropionic acid), 2-O-methyltyrosine]-arginine vasopressin, reference compound] (Y(Me)FQNCPRG-NH2; linker N-5 via X1)
Antivasopressor pA2 [2]: 8.62 ± 0.03 | Antagonistic Activities Antivasopressor pA2 [2]: 8.62 ± 0.03

COc1ccc(C[C@@H]2NC(=O)CC3(CCCCC3)SSC[C@@H](C(=O)N3CCC[C@H]3C(=O)N[C@H](CCCNC(=N)N)C(=O)NCC(N)=O)NC(=O)[C@H](CC(N)=O)NC(=O)[C@H](C(C)C)NC(=O)[C@H](Cc3ccccc3)NC2=O)cc1 [d(CH2)5 Tyr(Me)VDAVP, [1-(β-mercapto-β,β-cyclopentamethylenepropionic acid), 2-O-methyltyrosine, 4-valine, 8-D-arginine]vasopressin] (Y(Me)FVNCP[dR]G-NH2; linker N-5 via X1)
Anti-Antidiuretic pA2 [1, 3]: 6.68 ± 0.11 | Antivasopressor pA2 [2]: 8.44 ± 0.07

COc1ccc(C[C@@H]2NC(=O)CC3(CCCCC3)SSC[C@H](C(=O)N3CCC[C@H]3C(=O)N[C@@H](CCCNC(=N)N)C(=O)NCC(N)=O)NC(=O)[C@H](CC(N)=O)NC(=O)[C@H](CCC(N)=O)NC(=O)[C@H](Cc3ccccc3)NC2=O)cc1 [d(CH2)5 Tyr(Me)^2 D-Cys^6 AVP] (Y(Me)FQN[dC]PRG-NH2; linker N-5 via X1)
Anti-Antidiuretic pA2 [1, 3]: 5.5 | Antivasopressor pA2 [2]: 7.87 ± 0.09

COc1ccc(C[C@H]2NC(=O)CC3(CCCCC3)SSC[C@@H](C(=O)N3CCC[C@H]3C(=O)N[C@@H](CCCNC(=N)N)C(=O)NCC(N)=O)NC(=O)[C@H](CC(N)=O)NC(=O)[C@H](CCC(N)=O)NC(=O)[C@H](Cc3ccccc3)NC2=O)cc1 [d(CH2)5 [D-Tyr(Me)^2]AVP, [1-(β-mercapto-β,β-cyclopentamethylenepropionic acid), 2-D-(O-methyl)tyrosine]-arginine vasopressin] ([dY](Me)FQNCPRG-NH2; linker N-5 via X1)
Anti-Antidiuretic pA2 [1, 3]: 6.98 ± 0.08 | Antivasopressor pA2 [2]: 8.27 ± 0.02

[1-(β-mercapto-β,β-cyclopentamethylenepropionic acid), 2-D-phenylalanine, 4-aminobutyric acid]-arginine vasopressin [d(CH 2)5 D-Phe^2 Abu^4 AVP]
Anti-Antidiuretic ED ([1]; Table 2): 0.77 ± 0.12 nmol/kg | Anti-Antidiuretic pA2 [1, 4]: 7.96 | Antivasopressor Potency ED [2]: 1.4 ± 0.3 nmol/kg | AD/VP [2]: 1.8

[1-(β-mercapto-β,β-cyclopentamethylenepropionic acid), 2-D-phenylalanine, 4-leucine, 7-hydroxyproline]-arginine vasopressin [d(CH2)5 D-Phe^2 Ile^4 Hy-Pro^7 AVP]
Anti-Antidiuretic ED ([1]; Table 2): 1.3 ± 0.3 nmol/kg | Anti-Antidiuretic pA2 [1, 4]: 7.74 | Antivasopressor Potency ED [2]: 0.9 ± 0.2 nmol/kg | AD/VP [2]: 0.7
